According to patent US20120059032A1, “1,2,3,4-TETRAHYDROISOQUINOLINE DERIVATIVES EFFECTIVE AS ANTIGLIOMA AGENTS, METHODS OF MAKING, AND THEIR USE” (University of Tennessee Research Foundation, priority 2009, published 2012):
Structures can show the parent of a compound that is named as a salt. Where two headings read alike, the source gives them in different places.

Columns and labels:
[1] = test system: primary cultures of normal rat astrocytes; assay: Screening and dose response assay (percent survival, 4 days, cresyl violet) on astrocytes; type: cell-based; conditions: Table 1
From the text: (§1) Screening and Dose Response Assays. […]-1-(2′-methoxybiphenyl-4-ylmethyl)-3,4-dihydro-1H-isoquinoline-2-carboxylic acid tert-butyl ester (7a; EDL-355) was synthesized as described herein in the laboratory of Dr. Duane D. Miller at The University of Tennessee Health Science Center. Briefly, the primary cultures of astrocytes and cultures of C6 glioma cell lines were handled identically with respect to treatment concentrations and manipulations of cells for the screening assays. The cells were trypsinized and transferred to 96-well plates at a cell density of 10^3 cells/mm^2 in the wells. The cells were grown overnight in 100 μL of 10% FCS BME in a 37° C. incubator containing a humid, 5% CO2 atmosphere.
(§2) EDL-355 was dissolved completely to make a 100 μM stock solution and diluted to produce a series of concentrations.
(§3) A 20 μL aliquot of these initial solutions was added to 180 μl of 2% FCS BME to produce the test concentration. The vehicle solution was tested as a control. […] Immediately before treatment, the 10% FCS BME was removed from the cells and replaced with the […] of the treatment medium. The cultured cells (normal primary cultures of rat brain astrocytes or C6 glioma purchased from ATCC) were incubated with test compound for 4 days. The cells were fixed with 4% paraformaldehyde, stained with 0.1% Cresylecth violet stain, and quantitated. The screening data was collected as four wells for each dose per compound (screening) or concentration (dose response curve). Also, the average growth of 8 wells with no treatment was used as a negative control for each plate (100% growth). The cells for dose response curves were grown in the same media and were handled in a similar manner as in the screening assays.
(§4) Data Analysis. The cytotoxic character of each compound was reported as the percent survival, calculated as the average A560 for treated cells divided by A560 of untreated (100% control) cells, and expressed as a percentage. Values less than 100% indicate a cytostatic or cytotoxic effect. Dose response curves and EC50 values were attained via plots of percent survival vs. concentration.

[2] = test system: C6 rat glioma cells; assay: Screening and dose response assay (percent survival, 4 days, cresyl violet) on C6 glioma; type: cell-based
From the text: as §1, §2, §3, §4

## COc1cc2c(c(OC)c1)C(Cc1ccc(-c3ccccc3OC)cc1)NCC2 (single isomer, unassigned) [12a]
[1]; listed as drawing 11, read-out: EC50 μM Astrocyte
  EC50: 15.4 µM
[2]; Table 1, listed as drawing 11, read-out: EC50 μM C6
  EC50: 5.4 µM
[2]; text b70, rat C6 glioma cell lines, listed as (−) 12a, read-out: antiglioma activity on rat C6 glioma cell lines
  EC50: 5.39 µM

## COc1cc2c(c(OC)c1)C(Cc1ccc(-c3ccccc3OC)cc1)NCC2 (single isomer, unassigned) [13a]
[1]; Rattus norvegicus, Astrocyte
  EC50: 13.3 µM
[2]; Table 1, listed as drawing 12, read-out: EC50 μM C6
  EC50: 0.3 µM
[2]; ratio of the C6 values of (−) 12a and (+) 13a
  fold more potent than (−) 12a on rat C6 glioma cell lines: ~21 fold
[2]; text b70, rat C6 glioma cell lines, listed as (+) 13a, read-out: antiglioma activity on rat C6 glioma cell lines
  EC50: 0.26 µM

## COc1cc2c(c(OC)c1)C(Cc1ccc(-c3ccccc3OC)cc1)NCC2.Cl (stereo not drawn) [9a, 6,8-Dimethoxy-1-(2′-methoxybiphenyl-4-ylmethyl)-1,2,3,4-tetrahydroisoquinoline hydrochloride]
[1]; Rattus norvegicus, Astrocyte
  EC50: 10.2 µM
[1]; hydrochloride, read-out: EC50 μM Astrocyte
  EC50: 8.52 µM
other
  melting point: 140 to 142 °C

## COc1cc2c(c(OC)c1)C(Cc1ccc(-c3cnccc3OC)cc1)NCC2 (stereo not drawn) [9b, 6,8-Dimethoxy-1-[4-(4-methoxypyridin-3-yl)benzyl]-1,2,3,4-tetrahydroisoquinoline dihydrochloride]
[1]; Rattus norvegicus, Astrocyte
  EC50: 13.7 µM
[2]; Rattus norvegicus, Glioma cell, Table 1, read-out: EC50 μM C6
  EC50: 0.08 µM
